Target: T1, recombinant METTL3/METTL14 complex (Homo sapiens, UniProt Q86U44)
T1 construct: purchased Active Motif 311970; host or cells: Sf9 cells
Experiment: METTL3/14 Scintillation Proximity Assay (SPA), RNA methyltransferase activity
Format: biochemical
Settings: 5.31 nM METTL3/14 complex, 250 nM RNA substrate, 1 μM 3H-SAM, 90 min; for compounds marked * best of the two separated forms

T1 sequence (Q86U44 whole entry): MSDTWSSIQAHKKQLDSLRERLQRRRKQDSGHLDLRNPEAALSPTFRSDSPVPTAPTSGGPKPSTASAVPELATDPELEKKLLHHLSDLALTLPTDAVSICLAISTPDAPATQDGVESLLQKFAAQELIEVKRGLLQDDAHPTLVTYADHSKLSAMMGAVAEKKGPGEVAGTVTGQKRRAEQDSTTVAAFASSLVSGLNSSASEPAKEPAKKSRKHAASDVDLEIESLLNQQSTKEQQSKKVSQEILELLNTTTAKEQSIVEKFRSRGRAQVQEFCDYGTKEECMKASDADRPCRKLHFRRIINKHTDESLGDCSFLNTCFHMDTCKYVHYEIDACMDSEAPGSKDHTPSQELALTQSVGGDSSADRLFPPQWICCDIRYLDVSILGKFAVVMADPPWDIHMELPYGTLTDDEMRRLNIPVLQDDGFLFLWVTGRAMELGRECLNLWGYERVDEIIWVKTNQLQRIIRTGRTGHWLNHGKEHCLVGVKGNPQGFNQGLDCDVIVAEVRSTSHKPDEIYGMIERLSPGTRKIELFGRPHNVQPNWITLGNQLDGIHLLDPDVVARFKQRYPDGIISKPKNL
T1 sequence (Q9HCE5 whole entry partner): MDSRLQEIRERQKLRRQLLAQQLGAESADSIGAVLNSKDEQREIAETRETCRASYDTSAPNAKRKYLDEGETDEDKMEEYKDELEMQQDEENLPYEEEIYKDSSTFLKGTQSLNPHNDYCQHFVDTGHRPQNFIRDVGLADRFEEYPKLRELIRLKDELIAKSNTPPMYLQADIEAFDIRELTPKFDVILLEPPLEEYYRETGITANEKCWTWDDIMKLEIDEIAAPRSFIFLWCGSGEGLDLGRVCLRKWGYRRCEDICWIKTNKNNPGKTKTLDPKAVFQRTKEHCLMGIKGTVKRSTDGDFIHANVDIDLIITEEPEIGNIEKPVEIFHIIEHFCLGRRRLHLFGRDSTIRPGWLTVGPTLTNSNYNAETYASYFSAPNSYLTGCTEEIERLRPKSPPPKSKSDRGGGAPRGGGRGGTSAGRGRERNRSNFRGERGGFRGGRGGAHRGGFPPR

| Compound | IC50 [nM] |
| --- | --- |
| COc1cc(C(=O)NCc2ccc(N3CCC[C@@H](NCC4CCC4)C3)nn2)c2cn[nH]c2c1 [Compound 005, (R)-N-((6-(3-((cyclobutylmethyl)amino)piperidin-1-yl)pyridazin-3-yl)methyl)-6-methoxy-1H-indazole-4-carboxamide] | 50 to 500 |
| CC(c1ccc(N2CCC[C@@H](NCC3CCC3)C2)nn1)n1cc(-c2cc(=O)n3cc(Cl)ccc3n2)nn1 (stereo partly drawn) [Compound 090, 7-chloro-2-(1-(1-(6-((R)-3-((cyclobutylmethyl)amino)piperidin-1-yl)pyridazin-3-yl)ethyl)-1H-1,2,3-triazol-4-yl)-4H-pyrido[1,2-a]pyrimidin-4-one] | ≤ 50 |
| CC(NC(=O)c1cc(=O)n2ccccc2n1)c1ccc(N2CCC[C@@H](NCC3CCC3)C2)cc1 (stereo partly drawn) [Compound 100, N-(1-(4-((R)-3-((cyclobutylmethyl)amino)piperidin-1-yl)phenyl)ethyl)-4-oxo-4H-pyrido[1,2-a]pyrimidine-2-carboxamide] | 50 to 500 |
| CNc1ccn2c(=O)cc(C(=O)NC(C)c3ccc(N4CCC[C@@H](NCC5CCC5)C4)nn3)nc2c1 (mixture of isomers) [Compound 091, N-(1-(6-((R)-3-((cyclobutylmethyl)amino)piperidin-1-yl)pyridazin-3-yl)ethyl)-8-(methylamino)-4-oxo-4H-pyrido[1,2-a]pyrimidine-2-carboxamide] | ≤ 50 |
| CC(c1ccc(N2CCC[C@@H](NCC3CCC3)C2)cc1)n1cc(-c2cc(=O)n3ccccc3n2)nn1 (stereo partly drawn) [Compound 102] | ≤ 50 |
| COc1cncc(-c2cn(Cc3ccc(N4CCCCC(NCC5CCC5)C4)nn3)nn2)c1 (stereo not drawn) [Compound 101, N-(cyclobutylmethyl)-1-(6-((4-(5-methoxypyridin-3-yl)-1H-1,2,3-triazol-1-yl)methyl)pyridazin-3-yl)azepan-3-amine] | 50 to 500 |
| CC(n1cc(-c2cncc(F)c2)nn1)n1ccc(N2CCC[C@@H](NCC3CCC3)C2)cc1=O (stereo partly drawn) [Compound 094, 4-((R)-3-((cyclobutylmethyl)amino)piperidin-1-yl)-1-(1-(4-(5-fluoropyridin-3-yl)-1H-1,2,3-triazol-1-yl)ethyl)pyridin-2(1H)-one] | ≤ 50 |
| c1cc(N2CCC[C@@H](NCC3CCC3)C2)nnc1Cn1cc(-c2csc3cncn23)nn1 [Compound 034, (R)-N-(cyclobutylmethyl)-1-(6-((4-(imidazo[5,1-b]thiazol-3-yl)-1H-1,2,3-triazol-1-yl)methyl)pyridazin-3-yl)piperidin-3-amine] | ≤ 50 |
| COc1cc(-c2cn(Cn3cc(F)c(N4CCCC(NCC5CCC5)C4)cc3=O)nn2)c2cn[nH]c2c1 (stereo not drawn) [Compound 054, 4-(3-((cyclobutylmethyl)amino)piperidin-1-yl)-5-fluoro-1-((4-(6-methoxy-1H-indazol-4-yl)-1H-1,2,3-triazol-1-yl)methyl)pyridin-2(1H)-one] | 500 to 3500 |
| COc1cncc(-c2cn(Cc3ccc(N4CCC(F)(F)C(NCC5CCC5)C4)nn3)nn2)c1 (stereo not drawn) [Compound 059, N-(cyclobutylmethyl)-4,4-difluoro-1-(6-((4-(5-methoxypyridin-3-yl)-1H-1,2,3-triazol-1-yl)methyl)pyridazin-3-yl)piperidin-3-amine] | 50 to 500 |
| O=C(NCc1ccc(N2CCC[C@@H](NCC3CCC3)C2)nc1)c1cc(=O)n2ccccc2n1 [Compound 061, (R)-N-((6-(3-((cyclobutylmethyl)amino)piperidin-1-yl)pyridin-3-yl)methyl)-4-oxo-4H-pyrido[1,2-a]pyrimidine-2-carboxamide] | ≤ 50 |
| COc1cncc(-c2nnc(Cc3ccc(N4CCC[C@@H](NCC5CCC5)C4)nn3)[nH]2)c1 [Compound 069, (R)-N-(cyclobutylmethyl)-1-(6-((5-(5-methoxypyridin-3-yl)-4H-1,2,4-triazol-3-yl)methyl)pyridazin-3-yl)piperidin-3-amine] | ≤ 50 |
| COc1cc(-c2cn(C(C)n3ccc(N4CCC[C@@H](NCC5CCC5)C4)cc3=O)nn2)cnc1C (stereo partly drawn) [Compound 104, 4-((R)-3-((cyclobutylmethyl)amino)piperidin-1-yl)-1-(1-(4-(5-methoxy-6-methylpyridin-3-yl)-1H-1,2,3-triazol-1-yl)ethyl)pyridin-2(1H)-one] | 50 to 500 |

Other lines, results leading:

| IC50 [nM] | Compound |
| --- | --- |
| 50 to 500 | CC(C(=O)Nc1cc(=O)n2ccccc2n1)c1ccc(N2CCC[C@@H](NCC3CCC3)C2)nn1 (stereo partly drawn) [Compound 275, 2-(6-((R)-3-((cyclobutylmethyl)amino)piperidin-1-yl)pyridazin-3-yl)-N-(4-oxo-4H-pyrido[1,2-a]pyrimidin-2-yl)propanamide] |
| ≤ 50 | COc1cncc(-c2cc(C(C)n3ccc(N4CCC[C@@H](NCC5CCC5)C4)cc3=O)sn2)c1 (mixture of isomers) [Compound 204, 4-((R)-3-((cyclobutylmethyl)amino)piperidin-1-yl)-1-(1-(3-(5-methoxypyridin-3-yl)isothiazol-5-yl)ethyl)pyridin-2(1H)-one] |
| 50 to 500 | CC1CCCN1c1cncc(-c2cn(C(C)n3ccc(N4CCC[C@@H](NCC5CCC5)C4)cc3=O)nn2)c1 (mixture of isomers) [Compound 172] |
| ≤ 50 | CC(n1cc(-c2cncc(-n3cccn3)c2)nn1)n1ccc(N2CCC[C@@H](NCC3CCC3)C2)cc1=O (mixture of isomers) [Compound 146, 1-(1-(4-(5-(1H-pyrazol-1-yl)pyridin-3-yl)-1H-1,2,3-triazol-1-yl)ethyl)-4-((R)-3-((cyclobutylmethyl)amino)piperidin-1-yl)pyridin-2(1H)-one] |
| ≤ 50 | COc1cncc(-c2cn(C(C)c3ccc(N4CCC[C@@H](NCC5CC5)C4)cn3)nn2)n1 (stereo partly drawn) [Compound 261, (3R)—N-(cyclopropylmethyl)-1-(6-(1-(4-(6-methoxypyrazin-2-yl)-1H-1,2,3-triazol-1-yl)ethyl)pyridin-3-yl)piperidin-3-amine] |
| ≤ 50 | CC(n1cc(-c2cncc(N3CCOCC3)c2)nn1)n1ccc(N2CCC[C@@H](NCC3CCC3)C2)cc1=O (mixture of isomers) [Compound 129, 4-((R)-3-((cyclobutylmethyl)amino)piperidin-1-yl)-1-(1-(4-(5-morpholinopyridin-3-yl)-1H-1,2,3-triazol-1-yl)ethyl)pyridin-2(1H)-one] |
| ≤ 50 | COc1cnnc(-c2cn(Cc3ccc(N4CCC[C@@H](NCC5CCC5)C4)cc3)nn2)c1 [Compound 136, (R)-N-(cyclobutylmethyl)-1-(4-((4-(5-methoxypyridazin-3-yl)-1H-1,2,3-triazol-1-yl)methyl)phenyl)piperidin-3-amine] |
| ≤ 50 | CC(c1ccc(N2CCC[C@@H](NCC3CCC3)C2)nn1)n1cc(-c2cncc(N(C)C)c2)nn1 (mixture of isomers) [Compound 133, 5-(1-(1-(6-((R)-3-((cyclobutylmethyl)amino)piperidin-1-yl)pyridazin-3-yl)ethyl)-1H-1,2,3-triazol-4-yl)-N,N-dimethylpyridin-3-amine] |
| ≤ 50 | O=C(Cc1ccc(N2CCC[C@@H](NCC3CCC3)C2)cn1)Nc1cncc(N2CCCC2)c1 [Compound 271, (R)-2-(5-(3-((cyclobutylmethyl)amino)piperidin-1-yl)pyridin-2-yl)-N-(5-(pyrrolidin-1-yl)pyridin-3-yl)acetamide] |
| ≤ 50 | COc1cc(-c2ncc(C(C)c3ccc(N4CCC[C@@H](NCC5CCC5)C4)cn3)s2)c2cn[nH]c2c1 (single isomer, unassigned) [Compound 167] |
| ≤ 50 | COc1cncc(-c2nnn(C(C)c3ccc(N4CCC[C@@H](NCC5CCC5)C4)nn3)n2)c1 (single isomer, unassigned) [Compound 190] |

From patent US20250002475A1 (EPICS THERAPEUTICS, priority 2023, published 2025)
